Laboratory results taken from publication PMC12250302, “Synthesis, Antimicrobial Activities, and Model of Action of Novel Tetralone Derivatives Containing Aminoguanidinium Moiety” (International Journal of Molecular Sciences, 2025).
Values after ≈ are worked out from the molar mass of the structure shown.

Tests used:
[1] = tested on: E. faecium ATCC 35667; assay: MIC and MBC testing, broth microdilution; type: cell-based, Enterococcus faecium; conditions: Enterococcus faecium, ATCC35667, E. faecium ATCC 35667; for MIC: 18 h, read-out: MIC; for MBC: read-out: MBC
In short: (§1)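 Two-fold serial dilutions of compounds (DMSO stocks) in MH broth, inoculated with log-phase bacteria at 1 × 10^6 CFU/mL and incubated 18 h at 37 °C. MIC is the lowest concentration with no visible growth; triplicates. Levofloxacin positive, 0.1% DMSO negative control.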

[2] = tested on: K. pneumoniae ATCC 700603; assay: MIC and MBC testing, broth microdilution; type: cell-based, Klebsiella pneumoniae; conditions: Klebsiella pneumoniae; for MIC: ATCC700603, 18 h, read-out: MIC
In short: as §1

[3] = tested on: E. coli ATCC 25922; assay: MIC and MBC testing, broth microdilution; type: cell-based, Escherichia coli; conditions: Escherichia coli; for MIC: ATCC25922, 18 h, read-out: MIC
In short: as §1

[4] = tested on: S. aureus, including MRSA; assay: MIC testing, summary over S. aureus strains; type: cell-based; conditions: Staphylococcus aureus
Method: (§2) The minimum inhibitory concentration (MIC) of all synthesized compounds was tested by the broth microdilution method. In brief, compounds dissolved in DMSO were diluted twice continuously in a 96-well plate with MH broth. The ESKAPE pathogens (E. coli ATCC 25922, S. aureus ATCC 29213, K. pneumoniae ATCC 700603, A. baumannii ATCC 19606, P. aeruginosa ATCC 27853, and E. faecium ATCC 35667), clinical S. aureus isolates (LMY45, LMY46, LMY47, and LMY48) and methicillin-resistant Staphylococcus aureus (MRSA-1 and MRSA-2) were cultured in MH broth to logarithmic growth phase and then diluted to 1 × 10^6 CFU/mL in MH broth. Subsequently, the diluted bacterial solution was mixed with the diluted compound solution in a 96-well plate and incubated at 37 °C for a duration of 18 h. The MIC of the compounds was recorded as the lowest concentration at which no visible growth was observed. […] Each concentration was replicated thrice.

[5] = tested on: A. baumannii ATCC 19606; assay: MIC and MBC testing, broth microdilution; type: cell-based, Acinetobacter baumannii; conditions: Acinetobacter baumannii; for MIC: ATCC19606, 18 h, read-out: MIC
In short: as §1

[6] = tested on: MRSA; assay: MIC testing, summary over MRSA strains; type: cell-based; conditions: Staphylococcus aureus; against MRSA
Method: as §2

[7] = tested on: MRSA-1; assay: MIC and MBC testing, broth microdilution; type: cell-based, Staphylococcus aureus; conditions: Staphylococcus aureus, MRSA-1; for MIC: 18 h, read-out: MIC; for MBC: read-out: MBC
In short: (§3)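 Broth microdilution in MH broth: 2-fold compound dilutions from DMSO stocks, log-phase clinical S. aureus isolates or MRSA-1 at 1 × 10^6 CFU/mL, 18 h at 37 °C, each concentration in triplicate. MIC recorded; MBC also determined.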

[8] = tested on: clinical S. aureus isolate LMY46; assay: MIC and MBC testing, broth microdilution; type: cell-based, Staphylococcus aureus; conditions: Staphylococcus aureus, LMY46; for MIC: 18 h, read-out: MIC; for MBC: read-out: MBC
In short: as §3

[9] = tested on: clinical S. aureus isolate LMY47; assay: MIC and MBC testing, broth microdilution; type: cell-based, Staphylococcus aureus; conditions: Staphylococcus aureus, LMY47; for MIC: 18 h, read-out: MIC; for MBC: read-out: MBC
In short: as §3

[10] = tested on: clinical S. aureus isolate LMY48; assay: MIC and MBC testing, broth microdilution; type: cell-based, Staphylococcus aureus; conditions: Staphylococcus aureus, LMY48; for MIC: 18 h, read-out: MIC; for MBC: read-out: MBC
In short: as §3

[11] = tested on: clinical S. aureus isolate LMY45; assay: MIC and MBC testing, broth microdilution; type: cell-based, Staphylococcus aureus; conditions: Staphylococcus aureus, LMY45; for MIC: 18 h, read-out: MIC; for MBC: read-out: MBC
In short: as §3

[12] = tested on: MRSA-2; assay: MIC and MBC testing, broth microdilution; type: cell-based, Staphylococcus aureus; conditions: Staphylococcus aureus, MRSA-2; for MIC: 18 h, read-out: MIC; for MBC: read-out: MBC
In short: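 Strains grown to logarithmic phase were diluted to 1 × 10^6 CFU/mL, combined with compound two-fold dilution series in MH broth, and incubated at 37 °C for 18 h. MIC and MBC were then recorded, with triplicate wells per concentration.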

[13] = tested on: S. aureus ATCC 29213; assay: MIC and MBC testing, broth microdilution; type: cell-based, Staphylococcus aureus; conditions: Staphylococcus aureus, ATCC29213, S. aureus ATCC 29213; for MIC: 18 h, read-out: MIC; for MBC: read-out: MBC
In short: as §1

[14] = tested on: P. aeruginosa ATCC 27853; assay: MIC and MBC testing, broth microdilution; type: cell-based, Pseudomonas aeruginosa; conditions: Pseudomonas aeruginosa, ATCC27853, 18 h, read-out: MIC
In short: as §1

Row | SMILES | MIC [1] [µg/mL] | MBC [1] [µg/mL] | MIC [2] [µg/mL] | MIC [3] [µg/mL] | MIC [5] [µg/mL] | MIC [7] [µg/mL] | MBC [7] [µg/mL] | MIC [8] [µg/mL] | MBC [8] [µg/mL] | MIC [9] [µg/mL] | MBC [9] [µg/mL] | MIC [10] [µg/mL] | MBC [10] [µg/mL] | MIC [11] [µg/mL] | MBC [11] [µg/mL] | MIC [12] [µg/mL] | MBC [12] [µg/mL] | MIC [13] [µg/mL] | MBC [13] [µg/mL] | MIC [14] [µg/mL] | also measured
1 | [H]/N=C(\N)NN=C1CCCc2cc(OCc3ccc(Br)cc3)ccc21 [Compound 1S, (E)-2-(6-((4-bromobenzyl)oxy)-3,4-dihydronaphthalen-1(2H)-ylidene)hydrazine-1-carboximidamide] | 4 (≈ 10.3 µM) | 8 (≈ 20.7 µM) | 16 (≈ 41.3 µM) | 4 (≈ 10.3 µM) | 8 (≈ 20.7 µM) | 1 (≈ 2.58 µM) | 4 (≈ 10.3 µM) | 1 (≈ 2.58 µM) | 4 (≈ 10.3 µM) | 2 (≈ 5.16 µM) | 4 (≈ 10.3 µM) | 4 (≈ 10.3 µM) | 8 (≈ 20.7 µM) | 2 (≈ 5.16 µM) | 4 (≈ 10.3 µM) | 1 (≈ 2.58 µM) | 4 (≈ 10.3 µM) | 2 (≈ 5.16 µM) | 8 (≈ 20.7 µM) | > 32 | MBC ([2]; ATCC700603, read-out: MBC): 16 µg/mL (≈ 41.3 µM); MBC ([3]; ATCC25922, read-out: MBC): 8 µg/mL (≈ 20.7 µM); MIC [4]: 0.5 to 4 µg/mL (≈ 1.29 to 10.3 µM); MBC ([5]; ATCC19606, read-out: MBC): 16 µg/mL (≈ 41.3 µM); MIC [6]: 1 to 2 µg/mL (≈ 2.58 to 5.16 µM)
2 | [H]/N=C(\N)NN=C1CCCc2cc(OCCCCCCCCC)ccc21 [Compound 2F, (E)-2-(6-(nonyloxy)-3,4-dihydronaphthalen-1(2H)-ylidene)hydrazine-1-carboximidamide] | 2 (≈ 5.81 µM) | 4 (≈ 11.6 µM) | > 32 | > 32 | > 32 | 2 (≈ 5.81 µM) | 2 (≈ 5.81 µM) | 2 (≈ 5.81 µM) | 4 (≈ 11.6 µM) | 2 (≈ 5.81 µM) | 8 (≈ 23.2 µM) | 1 (≈ 2.9 µM) | 2 (≈ 5.81 µM) | 2 (≈ 5.81 µM) | 4 (≈ 11.6 µM) | 1 (≈ 2.9 µM) | 2 (≈ 5.81 µM) | 2 (≈ 5.81 µM) | 8 (≈ 23.2 µM) | > 32 | 
3 | [H]/N=C(\N)NN=C1CCCc2cc(OCCCCCCCCCC)ccc21 [Compound 2G, (E)-2-(6-(decyloxy)-3,4-dihydronaphthalen-1(2H)-ylidene)hydrazine-1-carboximidamide] | 2 (≈ 5.58 µM) | 8 (≈ 22.3 µM) | > 32 | > 32 | > 32 | 4 (≈ 11.2 µM) | 16 (≈ 44.6 µM) | 4 (≈ 11.2 µM) | 8 (≈ 22.3 µM) | 2 (≈ 5.58 µM) | 2 (≈ 5.58 µM) | 2 (≈ 5.58 µM) | 4 (≈ 11.2 µM) | 4 (≈ 11.2 µM) | 16 (≈ 44.6 µM) | 4 (≈ 11.2 µM) | 4 (≈ 11.2 µM) | 2 (≈ 5.58 µM) | 8 (≈ 22.3 µM) | > 32 | 
4 | [H]/N=C(\N)NN=C1CCCc2cc(OCCCCCCCCCCC)ccc21 [Compound 2H, (E)-2-(6-(undecyloxy)-3,4-dihydronaphthalen-1(2H)-ylidene)hydrazine-1-carboximidamide] | 4 (≈ 10.7 µM) | 8 (≈ 21.5 µM) | > 32 | > 32 | > 32 | 4 (≈ 10.7 µM) | 16 (≈ 42.9 µM) | 2 (≈ 5.37 µM) | 16 (≈ 42.9 µM) | 2 (≈ 5.37 µM) | 16 (≈ 42.9 µM) | 4 (≈ 10.7 µM) | 4 (≈ 10.7 µM) | 4 (≈ 10.7 µM) | 8 (≈ 21.5 µM) | 4 (≈ 10.7 µM) | 16 (≈ 42.9 µM) | > 32 |  | > 32 | 
